Assay type in all cases: biochemical
The target of test [1] is CDK2/CCNE1 (Homo sapiens, UniProt P24941). As to the kind of experiment: CDK2 homogeneous time-resolved fluorescence (HTRF) kinase assay. The note with it: CDK2/CCNE. In a few lines:
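3 nM CDK2/CCNE1 was preincubated with compound for 20 min at 23 °C in HEPES buffer (pH not stated), then reacted 60 min with 1 mM ATP and 50 nM ULight-4E-BP1 (Thr37/46) peptide. After EDTA stop, Eu-anti-phospho-4E-BP1 antibody (2 nM) was added for 60 min and TR-FRET read at 665 nm.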

Test [2] deals with CDK1/CCNB1 (Homo sapiens, UniProt P06493). As to the kind of experiment: CDK1 homogeneous time-resolved fluorescence (HTRF) kinase assay. The note with it: CDK1/CCNB. In a few lines: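 0.5 nM CDK1/CCNB1 was preincubated 20 min at 23 °C with compound in HEPES pH-unspecified buffer (MgCl2, EGTA, DTT, Tween 20), then reacted 60 min with 1 mM ATP and 50 nM ULight-4E-BP1 (Thr37/46) peptide. EDTA-stopped reactions were detected with 2 nM Eu-anti-phospho antibody; IC50 from 11-point half-log titrations.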

The target of test [3] is CDK4/CCND3 (Homo sapiens, UniProt P11802). As to the kind of experiment: CDK4 homogeneous time-resolved fluorescence (HTRF) kinase assay. The following applies: CDK4/CCND. The procedure, abridged: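 CDK4/CCND3 at 1.5 nM was preincubated with compound for 20 min at 23 °C, then reacted for 60 min with 1 mM ATP and 50 nM ULight-4E-BP1 (Thr37/46) peptide. The reaction was stopped with EDTA, and phosphorylation was read by HTRF with a Eu-anti-phospho antibody. IC50 values came from 11-point half-log titrations, typically from 10 μM.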

Test [4] has as its target CDK6/CCND1 (Homo sapiens, UniProt Q00534). The test is described as follows: CDK6 homogeneous time-resolved fluorescence (HTRF) kinase assay. The following applies: CDK6/CCND. In a few lines:
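Enzyme pre-incubated 20 min at 23 °C with compound, then reacted 60 min at 23 °C with 1 mM ATP and 50 nM ULight-4E-BP1 (Thr37/46) peptide; 1 nM enzyme, 1% DMSO. EDTA-stopped, Eu-anti-phospho antibody TR-FRET read (665 nm or 665/615 ratio); 11-point half-log titration from 10 μM gave IC50.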
For orientation: TR-FRET usually uses a lanthanide donor and a delayed reading to cut background.

The mark [5] stands for this setting: x = IC50 <25 nM, read-out: CDK2/CCNE IC50 (<25 nM).
[6] abbreviates: x = IC50 25-250 nM, read-out: CDK1/CCNB IC50 (25-250 nM).
The mark [7] stands for this setting: x = IC50 >250 nM, read-out: CDK4/CCND IC50 (>250 nM column).
[8] abbreviates: x = IC50 >250 nM, read-out: CDK6/CCND IC50 (>250 nM column).
The mark [9] stands for this setting: x = IC50 >250 nM, read-out: CDK1/CCNB IC50 (>250 nM column).
Setting [10] is: x = IC50 25-250 nM, read-out: CDK2/CCNE IC50 (25-250 nM).

Each structure is given as a SMILES string. Like-named read-outs stand apart in the source and are kept apart here.

CDK6/CCND1, sequence (Q00534 whole entry): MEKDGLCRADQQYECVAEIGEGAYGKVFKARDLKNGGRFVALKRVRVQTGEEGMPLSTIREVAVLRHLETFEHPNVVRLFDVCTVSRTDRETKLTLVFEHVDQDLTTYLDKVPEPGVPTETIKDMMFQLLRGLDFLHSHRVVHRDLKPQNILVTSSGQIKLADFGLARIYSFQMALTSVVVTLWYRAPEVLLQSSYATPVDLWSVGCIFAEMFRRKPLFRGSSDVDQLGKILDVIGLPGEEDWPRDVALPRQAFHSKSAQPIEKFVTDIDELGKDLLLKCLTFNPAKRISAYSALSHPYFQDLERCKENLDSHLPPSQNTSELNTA
CDK6/CCND1, sequence (P24385 whole entry partner): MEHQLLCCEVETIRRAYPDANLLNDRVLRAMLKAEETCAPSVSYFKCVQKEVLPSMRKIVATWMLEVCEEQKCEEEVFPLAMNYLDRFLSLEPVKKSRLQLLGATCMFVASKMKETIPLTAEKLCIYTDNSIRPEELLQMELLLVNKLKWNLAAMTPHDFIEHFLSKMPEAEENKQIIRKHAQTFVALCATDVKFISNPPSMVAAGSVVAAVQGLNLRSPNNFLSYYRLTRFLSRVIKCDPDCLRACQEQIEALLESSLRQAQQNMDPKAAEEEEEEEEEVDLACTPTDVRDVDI
CDK4/CCND3, sequence (P11802 whole entry): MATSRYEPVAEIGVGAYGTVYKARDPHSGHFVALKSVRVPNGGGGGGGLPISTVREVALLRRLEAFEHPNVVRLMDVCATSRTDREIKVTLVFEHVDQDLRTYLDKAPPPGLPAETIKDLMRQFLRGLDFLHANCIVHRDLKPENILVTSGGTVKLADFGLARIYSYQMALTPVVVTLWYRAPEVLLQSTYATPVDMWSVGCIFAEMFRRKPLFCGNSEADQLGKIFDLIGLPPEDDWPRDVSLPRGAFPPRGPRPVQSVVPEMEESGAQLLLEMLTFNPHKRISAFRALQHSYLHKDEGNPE
CDK4/CCND3, sequence (P30281 whole entry partner): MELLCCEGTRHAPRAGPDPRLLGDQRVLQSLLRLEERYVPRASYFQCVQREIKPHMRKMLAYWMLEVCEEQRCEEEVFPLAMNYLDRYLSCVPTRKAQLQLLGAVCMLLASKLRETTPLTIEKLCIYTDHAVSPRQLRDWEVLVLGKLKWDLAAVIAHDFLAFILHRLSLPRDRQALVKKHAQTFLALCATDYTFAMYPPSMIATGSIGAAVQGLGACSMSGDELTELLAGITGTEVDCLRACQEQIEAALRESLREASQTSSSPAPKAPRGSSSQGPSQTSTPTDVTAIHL
CDK1/CCNB1, sequence (P06493 whole entry): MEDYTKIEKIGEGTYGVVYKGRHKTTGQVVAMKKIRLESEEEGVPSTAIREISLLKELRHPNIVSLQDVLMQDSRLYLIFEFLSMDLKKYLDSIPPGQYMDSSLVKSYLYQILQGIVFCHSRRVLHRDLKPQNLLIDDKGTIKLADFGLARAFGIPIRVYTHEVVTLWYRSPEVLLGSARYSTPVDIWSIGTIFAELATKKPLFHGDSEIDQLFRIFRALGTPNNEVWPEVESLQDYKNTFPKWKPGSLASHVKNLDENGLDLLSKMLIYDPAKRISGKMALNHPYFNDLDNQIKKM
CDK1/CCNB1, sequence (P14635 whole entry partner): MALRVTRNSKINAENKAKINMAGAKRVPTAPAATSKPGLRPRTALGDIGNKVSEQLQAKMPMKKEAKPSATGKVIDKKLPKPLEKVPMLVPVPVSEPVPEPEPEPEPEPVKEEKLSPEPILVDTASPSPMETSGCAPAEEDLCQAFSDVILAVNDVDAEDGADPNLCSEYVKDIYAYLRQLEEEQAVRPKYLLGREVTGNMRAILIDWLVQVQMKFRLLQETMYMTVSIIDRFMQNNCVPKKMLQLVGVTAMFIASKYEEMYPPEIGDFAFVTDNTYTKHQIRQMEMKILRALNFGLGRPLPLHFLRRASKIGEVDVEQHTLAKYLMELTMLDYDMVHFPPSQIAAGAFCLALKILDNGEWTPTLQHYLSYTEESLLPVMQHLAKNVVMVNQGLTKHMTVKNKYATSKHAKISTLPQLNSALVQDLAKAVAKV

In the case of `CC(C)S(=O)(=O)c1ccc(Nc2cc3c(C#Cc4ccc5c(c4)NC(=O)C54CC4)nccc3cn2)cc1` [Ex 393, 6'-((7-((4-(isopropylsulfonyl)phenyl)amino)-2,6-naphthyridin-1-yl)ethynyl)spiro[cyclopropane-1,3'-indolin]-2'-one], the IC50 in test [1] (setting [5]) is less than 25 nM; in test [2] (setting [6]), 25 to 250 nM; in test [3] (setting [7]), greater than 250 nM; in test [4] (setting [8]), greater than 250 nM.
As to `O=C1Nc2cc(C#Cc3nccc4cnc(Nc5ccc(S(=O)(=O)C6CCC6)cc5)cc34)ccc2C12CC2` [Ex 394, 6'-((7-((4-(cyclobutylsulfonyl)phenyl)amino)-2,6-naphthyridin-1-yl)ethynyl)spiro[cyclopropane-1,3'-indolin]-2'-one], the IC50 was less than 25 nM in test [1] (setting [5]), 25 to 250 nM in test [2] (setting [6]), greater than 250 nM in test [3] (setting [7]) and greater than 250 nM in test [4] (setting [8]).
On to `CCC1(CC)C(=O)Nc2cc(C#Cc3nccc4cnc(Nc5ccc(S(C)(=O)=O)cc5OC)cc34)ccc21` [Ex 396, 3,3-diethyl-6-((7-((2-methoxy-4-(methylsulfonyl)phenyl)amino)-2,6-naphthyridin-1-yl)ethynyl)indolin-2-one], for which the IC50 in test [1] (setting [5]) is less than 25 nM; in test [2] (setting [9]), greater than 250 nM; in test [3] (setting [7]), greater than 250 nM; in test [4] (setting [8]), greater than 250 nM.
Take `CCS(=O)(=O)c1ccc(Nc2cc3c(C#Cc4ccc5c(c4)NC(=O)C54CC4)nccc3cn2)cc1` [Ex 397, 6'-((7-((4-(ethylsulfonyl)phenyl)amino)-2,6-naphthyridin-1-yl)ethynyl)spiro[cyclopropane-1,3'-indolin]-2'-one]: the IC50 in test [1] (setting [5]) is less than 25 nM; in test [2] (setting [6]) it was 25 to 250 nM; in test [3] (x = IC50 25-250 nM, read-out: CDK4/CCND IC50 (25-250 nM)) it was 25 to 250 nM; in test [4] (x = IC50 25-250 nM, read-out: CDK6/CCND IC50 (25-250 nM)), 25 to 250 nM.
As to `Nc1ncccc1C#Cc1nccc2cnc(Nc3ccc(S(=O)(=O)C4CC4)cc3)cc12` [Ex 399, 5-((2-aminopyridin-3-yl)ethynyl)-N-(4-(cyclopropylsulfonyl)phenyl)-2,6-naphthyridin-3-amine], the IC50 was less than 25 nM in test [1] (setting [5]), greater than 250 nM in test [2] (setting [9]), greater than 250 nM in test [3] (setting [7]) and greater than 250 nM in test [4] (setting [8]).
As to `CC(C)S(=O)(=O)c1ccc(Nc2cc3c(C#Cc4cccnc4N)nccc3cn2)cc1` [Ex 400, 5-((2-aminopyridin-3-yl)ethynyl)-N-(4-(isopropylsulfonyl)phenyl)-2,6-naphthyridin-3-amine], the IC50 in test [1] (setting [10]) is 25 to 250 nM; in test [2] (setting [9]) it was greater than 250 nM; in test [3] (setting [7]) it was greater than 250 nM; in test [4] (setting [8]), greater than 250 nM.
For the molecule `CCS(=O)(=O)c1ccc(Nc2cc3c(C#Cc4cccnc4N)nccc3cn2)cc1` [Ex 401, 5-((2-aminopyridin-3-yl)ethynyl)-N-(4-(ethylsulfonyl)phenyl)-2,6-naphthyridin-3-amine], the IC50 was less than 25 nM in test [1] (setting [5]), greater than 250 nM in test [2] (setting [9]), greater than 250 nM in test [3] (setting [7]) and greater than 250 nM in test [4] (setting [8]).
With `CCS(=O)(=O)c1ccc(Nc2cc3c(C#Cc4ccc5c(c4)NC(=O)C54CCC4)nccc3cn2)cc1` [Ex 405, 6'-((7-((4-(ethylsulfonyl)phenyl)amino)-2,6-naphthyridin-1-yl)ethynyl)spiro[cyclobutane-1,3'-indolin]-2'-one], the IC50 in test [1] (setting [5]) was less than 25 nM; in test [2] (setting [6]), 25 to 250 nM; in test [3] (setting [7]), greater than 250 nM; in test [4] (setting [8]), greater than 250 nM.
For `CC1(C)C(=O)Nc2cc(C#Cc3nccc4cnc(Nc5ccc(S(C)(=O)=O)c(Cl)c5)cc34)ccc21` [Ex 407, 6-((7-((3-chloro-4-(methylsulfonyl)phenyl)amino)-2,6-naphthyridin-1-yl)ethynyl)-3,3-dimethylindolin-2-one], the IC50 in test [1] (setting [10]) was 25 to 250 nM; in test [2] (setting [9]) it was greater than 250 nM; in test [3] (setting [7]) it was greater than 250 nM; in test [4] (setting [8]), greater than 250 nM.
As for `CCC1(CC)C(=O)Nc2cc(C#Cc3nccc4cnc(Nc5ccc(S(=O)(=O)C6CCC6)cc5)cc34)ccc21` [Ex 409, 6-((7-((4-(cyclobutylsulfonyl)phenyl)amino)-2,6-naphthyridin-1-yl)ethynyl)-3,3-diethylindolin-2-one], the IC50 in test [1] (setting [5]) is less than 25 nM; in test [2] (setting [9]) it was greater than 250 nM; in test [3] (setting [7]), greater than 250 nM; in test [4] (setting [8]), greater than 250 nM.
Regarding `CS(=O)(=O)c1ccc(Nc2cc3c(C#Cc4cccnc4N)nccc3cn2)c(F)c1` [Ex 418, 5-((2-aminopyridin-3-yl)ethynyl)-N-(2-fluoro-4-(methylsulfonyl)phenyl)-2,6-naphthyridin-3-amine], the IC50 is 25 to 250 nM in test [1] (setting [10]), greater than 250 nM in test [2] (setting [9]), greater than 250 nM in test [3] (setting [7]) and greater than 250 nM in test [4] (setting [8]).
Take `CS(=O)(=O)c1ccc(Nc2cc3c(C#Cc4cccnc4N)nccc3cn2)nc1` [Ex 419, 5-((2-aminopyridin-3-yl)ethynyl)-N-(5-(methylsulfonyl)pyridin-2-yl)-2,6-naphthyridin-3-amine]: the IC50 is 25 to 250 nM in test [1] (setting [10]), greater than 250 nM in test [2] (setting [9]), greater than 250 nM in test [3] (setting [7]) and greater than 250 nM in test [4] (setting [8]).
For `Cc1cc(S(C)(=O)=O)ccc1Nc1cc2c(C#Cc3cccnc3N)nccc2cn1` [Ex 420, 5-((2-aminopyridin-3-yl)ethynyl)-N-(2-methyl-4-(methylsulfonyl)phenyl)-2,6-naphthyridin-3-amine], the IC50 was 25 to 250 nM in test [1] (setting [10]), greater than 250 nM in test [2] (setting [9]), greater than 250 nM in test [3] (setting [7]) and greater than 250 nM in test [4] (setting [8]).
As to `CC1(C)C(=O)Nc2cc(C#Cc3nccc4cnc(Nc5ccc(S(C)(=O)=O)c(F)c5)cc34)ccc21` [Ex 422, 6-((7-((3-fluoro-4-(methylsulfonyl)phenyl)amino)-2,6-naphthyridin-1-yl)ethynyl)-3,3-dimethylindolin-2-one], the IC50 in test [1] (setting [5]) is less than 25 nM; in test [2] (setting [9]), greater than 250 nM; in test [3] (setting [7]), greater than 250 nM; in test [4] (setting [8]), greater than 250 nM.
Consider `CC1(C)C(=O)Nc2cc(C#Cc3nccc4cnc(Nc5ccc(S(C)(=O)=O)cc5Cl)cc34)ccc21` [Ex 423, 6-((7-((2-chloro-4-(methylsulfonyl)phenyl)amino)-2,6-naphthyridin-1-yl)ethynyl)-3,3-dimethylindolin-2-one], for which the IC50 in test [1] (setting [5]) was less than 25 nM; in test [2] (setting [9]), greater than 250 nM; in test [3] (setting [7]), greater than 250 nM; in test [4] (setting [8]) it was greater than 250 nM.
Consider `Cc1cc(S(C)(=O)=O)ccc1Nc1cc2c(C#Cc3ccc4c(c3)NC(=O)C4(C)C)nccc2cn1` [Ex 424, 3,3-dimethyl-6-((7-((2-methyl-4-(methylsulfonyl)phenyl)amino)-2,6-naphthyridin-1-yl)ethynyl)indolin-2-one], for which the IC50 in test [1] (setting [5]) was less than 25 nM; in test [2] (setting [6]), 25 to 250 nM; in test [3] (setting [7]) it was greater than 250 nM; in test [4] (setting [8]), greater than 250 nM.
As for `CC1(C)C(=O)Nc2cc(C#Cc3nccc4cnc(Nc5ccc(S(C)(=O)=O)nc5)cc34)ccc21` [Ex 425, 3,3-dimethyl-6-((7-((6-(methylsulfonyl)pyridin-3-yl)amino)-2,6-naphthyridin-1-yl)ethynyl)indolin-2-one], the IC50 in test [1] (setting [10]) is 25 to 250 nM; in test [2] (setting [9]), greater than 250 nM; in test [3] (setting [7]) it was greater than 250 nM; in test [4] (setting [8]), greater than 250 nM.
Turning to `CCC1(CC)C(=O)Nc2cc(C#Cc3nccc4cnc(Nc5ccc(S(=O)(=O)C(C)C)cc5)cc34)ccc21` [Ex 429, 3,3-diethyl-6-((7-((4-(isopropylsulfonyl)phenyl)amino)-2,6-naphthyridin-1-yl)ethynyl)indolin-2-one], the IC50 is less than 25 nM in test [1] (setting [5]), greater than 250 nM in test [2] (setting [9]), greater than 250 nM in test [3] (setting [7]) and greater than 250 nM in test [4] (setting [8]).
In the case of `CCC1(CC)C(=O)Nc2cc(C#Cc3nccc4cnc(Nc5ccc(S(=O)(=O)CC)cc5)cc34)ccc21` [Ex 430, 3,3-diethyl-6-((7-((4-(ethylsulfonyl)phenyl)amino)-2,6-naphthyridin-1-yl)ethynyl)indolin-2-one], the IC50 in test [1] (setting [5]) is less than 25 nM; in test [2] (setting [9]), greater than 250 nM; in test [3] (setting [7]) it was greater than 250 nM; in test [4] (setting [8]), greater than 250 nM.

Source of the values: US20260325533A1, “CDK INHIBITOR COMPOUNDS” (ALEKSIA THERAPEUTICS, INC., priority 2023, published 2026).
